In data set [1] the test system is DU145 cells. In words: Annexin-V apoptosis assay by flow cytometry, DU145. The following applies: DU145, 48 hr; Ptxl 1 nM, p28 50 μM, aurA/aurB 0.5-50 μM. The data set is classed as cell-based, human. As to the method:
(§1) FIG. 7A-7D: Determination of apoptotic cell death. Prostate cancer cell lines (7A: LNCaP, 7B: DU145 and 7C: PC3) and normal prostate CRL11611 cells (7D) were exposed to the indicated agents for 48 hr and stained using apoptosis assay kits according to the manufacturer's instructions. The samples were analyzed by flow cytometry. Mean±SE (N=3).
(§2) After 48 hr, annexin-V apoptosis assays (Thermo Fisher Scientific) were conducted to detect apoptotic cells. At least 10,000 cells in each case were analyzed by FACS (RRC, UIC).
(A flow cytometer gives signals particle by particle.)

Data set [2] has as its system PC3 prostate cancer cells. Briefly: MTT cell viability assay, PC3 prostate cancer cells. The data set is classed as cell-based, human. The following applies: PC3 (p53-null, AR−), 24-72 hr; paclitaxel 1 nM. As for the experimental part:
(§3) Cell lines and culture: Human cancer and noncancer (immortalized and nonimmortalized) cell lines were obtained from the American Type Culture Collection [prostate cancer (PC3, DU145 and LNCaP), normal prostate (CRL11611), breast cancer (MCF-7), ovarian cancer (SK-OV3 adenocarcinoma), lung cancer (A549)]. MDD2 breast cancer cells (p53 dominant-negative) were provided courtesy of Dr Andrei V. Gudkov, Roswell Park Cancer Institute. 20 All cell lines were cultured in MEM-E (Invitrogen) supplemented with 10% heat-inactivated fetal bovine serum (Atlanta Biological, Inc.), 100 units/mL penicillin, and 100 μg/mL streptomycin at 37° C. in 5% CO2.
In general terms: Tetrazolium assays rely on reduction of a dye to a coloured formazan, in cell work by metabolically active cells.

Data set [3] has as its system PC3 cells. In words: Annexin-V apoptosis assay by flow cytometry, PC3. The data set is classed as cell-based, human. The following applies: PC3, 48 hr; Ptxl 1 nM, p28 50 μM, aurA/aurB 0.5-50 μM. As to the method: as §1, §2
Data set [4] has as its system Human cancer cells. Briefly: MTT cell viability assay, human cancer cell panel. Format: cell-based. The following applies: 5-100 μM, 24 hr, 37° C. As for the experimental part: (§4) Cell viability was detected by MTT assays, and the control (PBS-treated) cells were considered 100% viable. Mean±SE (N=3). *P<0.05, **P<0.01, ***P<0.001.
Cytotoxicity assay: The MTT assay was performed as we previously described (Cha et al., Cancer Research 2020, 80: 1615-1623).

The subject of data set [5] is PC3 cells. In words: JC-1 mitochondrial membrane potential assay. Format: cell-based, human. The following applies: PC3, 1, 10 and 100 μM. As for the experimental part: Cells were stained by using JC-1 Mitochondrial Membrane Potential Assay Kits according to the manufacturer's instructions to measure mitochondrial membrane potential, and fluorescence was measured by flow cytometry. 9B, Caspase-3 is involved in aurB-induced apoptosis. […] The inhibitor was used at the indicated concentrations. Mean±SE (N=3).
JC-1 dye (Invitrogen) was used to determine mitochondrial membrane potential. […] After washing with PBS, trypsinized PC3 cells were incubated with JC-1 dye and analyzed by FACS.

For data set [6], the system named is normal prostate CRL11611 cells. Briefly: Annexin-V apoptosis assay by flow cytometry, normal prostate CRL11611. Format: cell-based, human. The following applies: normal CRL11611, 48 hr; Ptxl 1 nM, p28 50 μM, aurA/aurB 0.5-50 μM. As to the method: as §1, §2
Data set [7] has as its system PC3 cells. Briefly: Cellular membrane toxicity, LDH leakage assay. The data set is classed as cell-based, human. The following applies: PC3, 0.2-200 μM, 37° C. As to the method: FIG. 6A-6B: Cellular membrane toxicity assays. […] Cells treated with lysis buffer were defined as having 100% LDH release. Mean±SE (N=3).
Cellular membrane toxicity: LDH assays were performed as we previously described (Cha et al., Cancer Research 2020, 80: 1615-1623).
(LDH leaks from cells whose membrane has failed.)

Data set [8] concerns DU145 prostate cancer cells. In words: MTT cell viability assay, DU145 prostate cancer cells. Format: cell-based, human. The following applies: DU145 (p53-mutant, AR−), 24-72 hr; paclitaxel 1 nM.
Excerpt: as §4, §3

In data set [9] the test system is LNCaP cells. In words: Annexin-V apoptosis assay by flow cytometry, LNCaP. The following applies: 48 hr, Ptxl 1 nM, p28 50 μM, aurA/aurB 0.5-50 μM. The data set is classed as cell-based, human. As for the experimental part: as §1, §2
In data set [10] the target is T1, mitochondrial ATP synthase gamma subunit (ATP5C) (Homo sapiens, UniProt P36542).
T1 construct: endogenous in cells; host or cells: PC3 human prostate cancer cells, mitochondrial fraction (detergent extract)
T1 sequence (P36542 26-298): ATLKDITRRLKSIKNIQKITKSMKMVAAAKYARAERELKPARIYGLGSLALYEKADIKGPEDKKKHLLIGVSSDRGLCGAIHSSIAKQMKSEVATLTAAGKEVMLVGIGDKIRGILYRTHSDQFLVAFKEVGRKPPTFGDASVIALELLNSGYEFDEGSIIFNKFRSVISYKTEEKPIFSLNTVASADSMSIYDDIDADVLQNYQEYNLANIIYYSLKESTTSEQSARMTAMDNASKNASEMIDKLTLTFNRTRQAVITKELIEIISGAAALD
Briefly: Pull-down assay with biotin-labeled peptides and protein identification. Format: binding. The following applies: mitochondrial fraction of PC3 cells, biotin-labeled peptide, 16 hr at 4° C. From the text: 8A, TEM image of PC3 cells. Representative TEM micrograph of aurB-treated cells depicting the intraritochondrial localization of aurB-GNRs (arrowheads) and mitochondria](Mt) swelling. Scale bar: 600 nm. Mt: mitochondria. […] Coomassie-stained SDS-PAGE gels are shown (8B). The protein band at ˜35 kDa (arrowhead) was identified as ATP5C using mass spectrometry analysis. The identified fragments are indicated in green underlined sequence (SEQ ID NO: 4)(8C).
Pull-down assay and protein identification: PC3 cells were washed twice with PBS, and the mitochondrial fraction was prepared with a Qproteome mitochondria isolation kit (Qiagen). […] The peptides were then preincubated with streptavidin-agarose beads for 4 hr. After washing, the beads were boiled, and the released proteins were subjected to SDS-PAGE analysis. A protein band of ˜35 kDa was subjected to microcapillary LC/MS/MS for protein identification (Harvard Medical School, Taplin Mass Spectrometry Facility). For IB, proteins were transferred to nitrocellulose membranes. After blocking with 5% BSA in TBST, the membranes were incubated with anti-ATP5C antibody at 1:25,000 in 5% BSA/TBST (Abcam) for 16 hr at 4° C. The secondary antibody was applied (anti-goat IgG-HRP; Santa Cruz Biotechnology). The signal was detected using enhanced chemiluminescence (ECL).

Data set [11] in a line: Water solubility of peptides.
For data set [12], the system named is LNCaP prostate cancer cells. In words: MTT cell viability assay, LNCaP prostate cancer cells. The data set is classed as cell-based, human. The following applies: LNCaP (p53 wild-type, AR+), 24-72 hr; paclitaxel 1 nM. As for the experimental part: as §3

The results in this text go back to patent US20250179126A1, “A NOVEL PEPTIDE FROM A PHOTOSYNTHETIC BACERIUM DIRECTLY TARGETS MITOCHONDRIA TO TRIGGER APOPTOSIS IN ADVANCED PROSTATE CANCER CELLS” (priority 2022, published 2025).

On to “LVK GGE AEA ANI ANA GLS AGP AAN YLPA [aurA]”, for which the apoptotic cell death entry in data set [1], in data set [3], in data set [6] and in data set [9] was “very little effect” throughout. Moreover, the “cytotoxic effect (MTT cell viability)” value in [2], in data set [8] and in data set [12] was “not active” throughout. Also, in data set [4], the “anti-proliferative effect (MTT cell viability)” value is recorded as “little effect at any concentration tested”. Besides, the “effect on mitochondrial membrane potential (JC-1)” value in [5] was “did not impact”. Further, the “cellular membrane toxicity (LDH release)” value in data set [7] is given as “Neither aurA nor aurB induced cellular membrane toxicity at any concentrations”. Also, the “binding to ATP5C (pull-down of ~35 kDa protein, IB)” value in data set [10] is “did not”. The water solubility result in [11] is “highly water-soluble”.
